The record followed here is a melting point compilation (Tetko et al.; mined from patent text by program, amines drawn as free bases though some values may be those of a salt).

By melting point is commonly meant the temperature of the solid-liquid transition. Take `O=C(NC[C@H]1CN(c2ccc(C3C=CS(=O)(=O)CC3)cc2)C(=O)O1)C(Cl)Cl` (stereo partly specified): the melting point lay within 159 to 161 °C.
Next, `CCOC(=O)c1cnc(Oc2ccccc2)s1`: 67 °C; `ClCc1ccc(OCc2coc(-c3ccccc3)n2)cc1`: 129 to 130 °C; `CCOc1c(N2CCNCC2)c(F)cc2c(=O)c(C(=O)O)cn(C3CC3)c12`: 119 to 122 °C.
With `Cc1cccc(CC(=O)c2ccnc(-c3ccc(C(=O)NC4CCOCC4)cc3)c2)n1`, the melting point is 210 °C.
In turn, `COC(=O)Cc1c(C)c2ccc(O)cc2oc1=O` gave a melting point of 194 to 196 °C.
As to `CC1(C)COC(=O)N1c1nc(-c2ccccc2)cs1`, the melting point lay within 94 to 97 °C.
Next, `N#Cc1ccc(N2CCOCC2)c(NC(N)=S)c1`: 193 to 194 °C; `NC(=O)c1ncn2c(-c3cccnc3)ccnc12`: over 260 °C.
`Cc1ccc(-c2c3ccccc3nn2Cc2ccccc2)cc1` showed a melting point of 111 °C.
The compound `COc1ccc(C(=O)C(=O)c2cccnc2)cc1` yielded a melting point of 70 to 72 °C.
Compound `CCN(C1CCN(C)CC1)S(=O)(=O)c1ccc(Nc2nccc(Nc3ccc(F)cc3)n2)cc1` had a melting point of 154 °C.
`O=C(Cn1nc(Br)nc1Br)N1CCC(c2nc(C3=NOC(c4c(F)cccc4F)C3)cs2)CC1` (stereo unspecified) showed a melting point of 185 to 189 °C.
Next, `CCCCCCCCCCCCCCCNC(=O)OCCOCCOC(=O)N(Cc1ccccn1)C(=O)OCC`: 52 to 53 °C; `NCC1Cc2c(F)c(F)cc(-c3ccccc3)c2O1` (stereo unspecified): over 240 °C.
Take `CN1CCC(OC(c2ccccc2)c2nc3cc(Cl)c(Cl)cc3[nH]2)CC1` (stereo unspecified): the melting point was determined as 221 °C.
For the compound `COC(=O)C1Oc2ccc(OC)cc2C(C)(c2ccccc2)O1` (stereo unspecified), the melting point lay within 70 to 71 °C.
In turn, `O=C(O)CCCCN1C(=O)NC(=O)C1(c1ccccc1)c1ccccc1` showed a melting point of 207 °C.
Compound `O=C(O)c1cc(F)ccc1Sc1ccccc1` showed a melting point of 146 to 148 °C.
Regarding `CN1CCC(c2c(O)cc(O)c3c(=O)cc(-c4ccccc4O)oc23)C1CO` (stereo unspecified), the melting point lay within 212 to 213 °C.
The compound `COc1ccc(Br)c2cc(C(=O)c3cccc(C(F)(F)F)c3)oc12` returned a melting point of 78 to 79 °C.
In turn, `COC(=O)Nc1cccc(C(=O)C=CN(C)C)c1` returned a melting point of 210 to 211 °C.
As for `Cc1cccc(NC(=O)c2cn(-c3ccccc3)c3ccccc3c2=O)n1`, the melting point lay in the range of 273 to 274 °C.
Consider `COC(=O)c1ccc(OCC(C)=O)c(C(=O)OC)c1`, for which the melting point lay within 115 to 116 °C.
Take `O=c1c2cc3ccccc3cc2oc2cc(OCC3CS3)cc(O)c12` (stereo unspecified): the melting point was 189 to 190 °C.
In turn, `COc1cc2c(cc1OC)CC(=O)N(CCC=O)C=C2` gave a melting point of 95 to 96 °C.
Next, `CCCC12CCC(=O)C=C1c1c(cc(OCC(=O)O)c(Cl)c1Cl)C2O` (stereo unspecified): 206 to 208 °C; `CC1(C)CC(N2C(=O)C=CC2=O)CC(C)(C)N1OC1CCCCC1`: 135 to 139 °C.
`CN(C)CCCN1C(=O)c2cc(Cl)c(S(N)(=O)=O)cc2C1=O` registered a melting point of 192 to 194 °C.
For the compound `C=CC[C@@H]1C[C@@H](COc2ccc(-c3ccc(C#N)cc3)cc2)N(Cc2ccc(OC)cc2)C1=O`, the melting point lay in the range of 120 to 122 °C.
Next, `O=c1n(CCN2CCN(c3ccc4cc[nH]c4c3)CC2)c2ccccc2n1C1=CCCCC1`: 171 to 173 °C; `COC(=O)CCCc1cc2nc(C(F)(F)F)ccc2n1S(=O)(=O)c1ccccc1Cl`: 88 °C; `Nc1cc(-c2ccccc2)c(=O)n2c1-c1sccc1CC2`: 180 to 182 °C.
In the case of `c1cnc(-c2cccnc2)nc1`, the melting point lay in the range of 51 to 52 °C.
As for `CCCCCCCCCCC(=O)OC1CC(C)(C)N(CC#N)C(C)(C)C1`, the melting point is 54 °C.
Turning to `O=[N+]([O-])c1ccc2[nH]c(-c3ccccc3)cc2c1`, the melting point was 199 to 200 °C.
The compound `CC(C)(C)NC(=O)[C@@H]1CCCN1C(=O)[C@@H](O)[C@H](Cc1ccccc1)NC(=O)[C@H](CC(N)=O)NC(=O)COc1ccc(NC(=O)OCc2ccccc2)cc1` registered a melting point of 103 to 105 °C.
Compound `CC(=O)N1C(C)(C)CC(Oc2nc(Cl)nc(N3C(C)(C)CCCC3(C)C)n2)CC1(C)C` showed a melting point of 114 to 116 °C.
Next, `CCN(CC)c1ccc(/C=C/C(=O)CC(=O)/C=C/c2ccc3cc[nH]c3c2)c(OC)c1`: 61 to 65 °C; `COc1ccc(CNC(=O)c2cc(C)ccc2N)cc1`: 144 to 145 °C; `CCOC(=O)NNC(=O)NCCOc1ccccc1`: 170 to 173 °C.
Next, `CCCCc1ccc(C(=O)NCc2c[nH]c(=S)n2[C@H]2CCc3c(F)cc(F)cc3C2)cc1`: 242 to 243 °C; `CCc1c(C(=O)c2cc(C)cc(C)c2)n(C/C=C/COC)c(=O)[nH]c1=O`: 142 to 143 °C.
In turn, `O=CC1c2ccccc2C(C=O)c2ccccc21` (stereo unspecified) had a melting point of 132 to 135 °C.
`FC(F)(c1ccccc1)C(F)(F)c1ccccc1Br` registered a melting point of 54 to 55 °C.
`CCCn1c(CCO)nc(C(C)C)c1Sc1cc(Cl)cc(Cl)c1` showed a melting point of 88 to 89 °C.
For the compound `CCOC(=O)N(C)C(=O)N(O)C(C)c1cc(C)sc1C` (stereo unspecified), the melting point lay in the range of 111 to 112 °C.
On to `CC=CCn1c(C)c(C)c2cnnc(SCc3ccc(Cl)cc3Cl)c21`, for which the melting point lay in the range of 81 to 85 °C.
For the compound `NC(=O)c1nccn1C1Sc2ccccc2C1=O` (stereo unspecified), the melting point worked out at 180 °C.
The compound `CSc1sc(-c2ccn(S(C)(=O)=O)n2)c2c1C(=O)CC(C)(C)C2` yielded a melting point of 193 to 195 °C.
`NC(=O)NN=Cc1ccc(Oc2cccnc2)cc1` yielded a melting point of 160 to 162 °C.
In turn, `COC(=O)c1ccc(-c2ccc3cc(C(=O)OCc4ccccc4)c(C45CC6CC(CC(C6)C4)C5)cc3c2)cc1` displayed a melting point of 143 to 144 °C.
For `Cc1nc(N2N=C(c3ccc([N+](=O)[O-])cc3)c3cc4c(cc3CC2C)OCO4)no1` (stereo unspecified), the melting point is 191 to 200 °C.
Next, `O=C(/C=C/c1ccc(O)c(OC(F)(F)F)c1)/C=C/c1ccc(O)c(OC(F)(F)F)c1`: 103 to 105 °C; `CC(=O)Nc1c([N+](=O)[O-])cc(C)c(OC(F)F)c1C`: 184 to 185 °C.
Next, `Nc1c([N+](=O)[O-])cnn1-c1ncc(Cl)cc1Cl`: 194 °C; `CC(C)(C)OC(=O)NCC1(CC#N)CCCCC1`: 54 to 58 °C.
Regarding `Cc1ccc(N2CN(c3ccccc3)c3[nH]ncc3C2=O)cc1`, the melting point is 260 to 262 °C.
Compound `CCOC(=O)c1[nH]c(CC)c(C)c1CC(C)C` came in with a melting point of 53 to 55 °C.
In turn, `O=C1CCCc2nc3ccccc3c(NCc3ccc(OCc4ccccc4)cc3)c21` had a melting point of 153 to 157 °C.
`NNc1ccnc2c(NC(=O)c3c(Cl)cccc3Cl)cc(Cl)cc12` had a melting point of 142 to 150 °C.
`CC(=O)Nc1ccc(CNC(=O)c2cccnc2Oc2ccc(F)cc2)cc1`: the melting point was in the range of 128 to 130 °C.
To `CCCCC(CC)CNCCOc1ccc2ccccc2c1` (stereo unspecified) belongs 92 °C; to `CCOC(=O)c1ccc(-c2ccc(N(c3ccc(-c4ccccc4)cc3)c3ccc(-c4ccc(C(=O)OCC)cc4)cc3)cc2)cc1`, 200 to 201 °C.
In turn, `CCCCCCCCNC1=CC(=O)c2c(OC)ccc(OC)c2C1=O` came in with a melting point of 81 to 82 °C.
`Nc1ccccc1NC(=O)c1ccc(CNc2c(NCc3cccnc3)c(=O)c2=O)cc1` gave a melting point of 230 °C.
With `COc1ccc(CN(C)CCc2ccc(NC(=O)c3cccc4c(=O)c5cccc(SC)c5[nH]c34)cc2)cc1OC`, the melting point came out at 190 °C.
To `NC(=O)CN1CC[C@@H](O)C1=O` belongs 195 to 196 °C; to `O=C(O)CNC(=O)c1cc(Br)nc(Br)c1`, 151 to 152 °C.
In turn, `Nc1ccc(C(=O)NCCNC(=O)c2ccc(N)cc2)cc1` gave a melting point of 294 to 295 °C.
To `CN(C)C1C(O)CC2C3CCc4cc(O)ccc4C3CCC21C` (stereo unspecified) belongs 240 to 242 °C; to `CC(C)(C)c1ccc(/C=C/C(=O)Nc2ccc3occc3c2)cc1`, 149 to 150 °C; to `O=C1CC(N2C=Nc3cc(Cl)cc(Cl)c3C2)C(=O)N1` (stereo unspecified), 215 to 217 °C.
Next, `CSc1ccc2oc3ccccc3c2c1`: 85 to 87 °C; `O=C(O)C1Cc2ccccc2C1`: 130 °C.
To `CCOCc1nc2c(N)nc(C)c(C)c2n1NC1CCC1` belongs 139 to 141 °C; to `CCOc1nn(-c2ccc(C(F)(F)F)cn2)cc1CCOc1cccc(CC(=O)O)c1`, 128 to 130 °C; to `O=c1ccc2c(-c3ccc(O)cc3)nccc2[nH]1`, over 300 °C.
Turning to `CCc1nc2c(C)cc(C)nc2n1Cc1ccc(NCC2CCNCC2)cc1`, the melting point was 165 to 168 °C.
Next, `Nc1ncccc1OCc1c(F)cccc1F`: 124 to 128 °C.
Take `Cc1cc(Cl)c(N)c([N+](=O)[O-])c1`: the melting point was 68.5 to 69.5 °C.
To `CCOP(=O)(OCC)C(C)Oc1cc(-n2c(=O)cc(C(F)(F)F)n(C)c2=O)c(F)cc1Cl` (stereo unspecified) belongs 103 °C.
Consider `Cc1c(O)ccc2c(=O)c(-c3ccc([N+](=O)[O-])cc3)coc12`, for which the melting point is 345 °C.
As for `Brc1cn2ccccc2n1`, the melting point lay in the range of 83 to 85 °C.
In turn, `CC(Oc1cc2sc(NC(=O)NCCN3CCOCC3)nc2cc1F)c1c(Cl)cccc1Cl` (stereo unspecified) came in with a melting point of 200 to 205 °C.
On to `Cc1nc2c3c(ccc2n1C)CCC(c1ccccc1)O3` (stereo unspecified), for which the melting point was in the range of 161 to 164 °C.
`CC(C)(C)OC(=O)COc1ccc(-c2c(Cl)c(CN3C(=O)CCC3=O)nc3sc4c(c23)CCSC4)cc1`: the melting point was in the range of 191 to 192 °C.
To `CCOC(=O)C1=C(C)NC(CC)=C(C(=O)OCC)C1c1cc([N+](=O)[O-])ccc1OCCCCCl` (stereo unspecified) belongs 147 to 149 °C.
`O=C(O)c1c(O)c(-c2ccc(-c3ccccc3)cc2)nc2c(Cl)cc(Cl)cc12` showed a melting point of 215 to 217 °C.
In turn, `CCCCCc1ccc(C(=O)Oc2ccc(C#N)c(F)c2F)cc1` yielded a melting point of 33 °C.
To `COC(=O)c1cccc2[nH]ncc12` belongs 153 to 155 °C.
